Drawing on ChEMBL document CHEMBL4043168, “The design and SAR of a novel series of 2-aminopyridine based LRRK2 inhibitors” (Bioorg Med Chem Lett, 2017), this text covers inhibition for 1 molecule.

The species entered for one assay is Homo sapiens. Description: Inhibition of p70S6K conserved Lys2 (DLKPENIMLNHQGHVK) in human PBMC at 0.1 uM.
Assay [1] concerns the target MAP/microtubule affinity-regulating kinase 3 (Homo sapiens) (UniProt P27448). Description: Inhibition of MARK3 conserved Lys2 (DLKAENLLLDADMNIK) in human PBMC at 1 uM.
Assay [2] has as its target T1, Serine/threonine-protein kinase ULK3 (Homo sapiens) (UniProt Q6PHR2).
T1 sequence (whole entry): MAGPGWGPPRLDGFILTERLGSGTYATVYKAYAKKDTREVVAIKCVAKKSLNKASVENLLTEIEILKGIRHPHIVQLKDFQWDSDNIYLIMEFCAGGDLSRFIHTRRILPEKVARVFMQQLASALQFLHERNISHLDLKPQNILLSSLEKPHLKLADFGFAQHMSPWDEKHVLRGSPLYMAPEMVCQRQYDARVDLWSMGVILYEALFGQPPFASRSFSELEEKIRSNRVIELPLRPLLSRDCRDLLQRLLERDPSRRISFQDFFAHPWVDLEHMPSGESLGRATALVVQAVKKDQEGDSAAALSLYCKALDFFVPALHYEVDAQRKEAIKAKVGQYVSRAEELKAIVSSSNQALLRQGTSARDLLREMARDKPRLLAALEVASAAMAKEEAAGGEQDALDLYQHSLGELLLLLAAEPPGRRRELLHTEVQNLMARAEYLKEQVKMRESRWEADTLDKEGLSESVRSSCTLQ
Description: Inhibition of ULK3 conserved Lys2 (NISHLDLKPQNILLSSLEKPHLK) in human PBMC at 0.1 uM.

Assay [3] has as its target Ribosomal protein S6 kinase alpha-5 (Homo sapiens) (UniProt O75582). Description: Inhibition of MSK1 domain1 conserved Lys2 (DIKLENILLDSNGHVVLTDFGLSK) in human PBMC at 0.1 uM.
The target in assay [4] is T2, Serine/threonine-protein kinase 4 (Homo sapiens) (UniProt Q13043).
T2 sequence (whole entry): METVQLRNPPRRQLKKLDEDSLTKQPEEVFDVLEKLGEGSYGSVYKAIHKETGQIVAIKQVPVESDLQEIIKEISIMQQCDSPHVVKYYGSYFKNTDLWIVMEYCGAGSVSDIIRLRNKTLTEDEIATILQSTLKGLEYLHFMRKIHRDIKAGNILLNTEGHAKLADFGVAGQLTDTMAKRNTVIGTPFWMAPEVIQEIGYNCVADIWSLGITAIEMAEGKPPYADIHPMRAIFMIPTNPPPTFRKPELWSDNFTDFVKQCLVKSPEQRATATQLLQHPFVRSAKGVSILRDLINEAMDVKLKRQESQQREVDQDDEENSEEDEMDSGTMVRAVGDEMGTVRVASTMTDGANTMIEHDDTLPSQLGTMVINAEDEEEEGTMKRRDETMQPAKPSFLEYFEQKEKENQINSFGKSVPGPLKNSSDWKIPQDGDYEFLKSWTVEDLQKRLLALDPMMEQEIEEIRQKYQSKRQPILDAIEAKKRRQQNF
Description: Inhibition of MST1 conserved Lys2 (DIKAGNILLNTEGHAK) in human PBMC at 1 uM.

The target of assay [5] is STE20-like serine/threonine-protein kinase (Homo sapiens) (UniProt Q9H2G2). As to the kind of experiment: Inhibition of SLK conserved Lys2 (DLKAGNILFTLDGDIK) in human PBMC at 0.1 uM.
In assay [6] the target is Mitogen-activated protein kinase 9 (Homo sapiens) (UniProt P45984). As to the kind of experiment: Inhibition of JNK2 conserved Lys2 (DLKPSNIVVK) in human PBMC at 0.1 uM.
The target in assay [7] is T3, Tyrosine-protein kinase JAK3 (Homo sapiens) (UniProt P52333).
T3 sequence (whole entry): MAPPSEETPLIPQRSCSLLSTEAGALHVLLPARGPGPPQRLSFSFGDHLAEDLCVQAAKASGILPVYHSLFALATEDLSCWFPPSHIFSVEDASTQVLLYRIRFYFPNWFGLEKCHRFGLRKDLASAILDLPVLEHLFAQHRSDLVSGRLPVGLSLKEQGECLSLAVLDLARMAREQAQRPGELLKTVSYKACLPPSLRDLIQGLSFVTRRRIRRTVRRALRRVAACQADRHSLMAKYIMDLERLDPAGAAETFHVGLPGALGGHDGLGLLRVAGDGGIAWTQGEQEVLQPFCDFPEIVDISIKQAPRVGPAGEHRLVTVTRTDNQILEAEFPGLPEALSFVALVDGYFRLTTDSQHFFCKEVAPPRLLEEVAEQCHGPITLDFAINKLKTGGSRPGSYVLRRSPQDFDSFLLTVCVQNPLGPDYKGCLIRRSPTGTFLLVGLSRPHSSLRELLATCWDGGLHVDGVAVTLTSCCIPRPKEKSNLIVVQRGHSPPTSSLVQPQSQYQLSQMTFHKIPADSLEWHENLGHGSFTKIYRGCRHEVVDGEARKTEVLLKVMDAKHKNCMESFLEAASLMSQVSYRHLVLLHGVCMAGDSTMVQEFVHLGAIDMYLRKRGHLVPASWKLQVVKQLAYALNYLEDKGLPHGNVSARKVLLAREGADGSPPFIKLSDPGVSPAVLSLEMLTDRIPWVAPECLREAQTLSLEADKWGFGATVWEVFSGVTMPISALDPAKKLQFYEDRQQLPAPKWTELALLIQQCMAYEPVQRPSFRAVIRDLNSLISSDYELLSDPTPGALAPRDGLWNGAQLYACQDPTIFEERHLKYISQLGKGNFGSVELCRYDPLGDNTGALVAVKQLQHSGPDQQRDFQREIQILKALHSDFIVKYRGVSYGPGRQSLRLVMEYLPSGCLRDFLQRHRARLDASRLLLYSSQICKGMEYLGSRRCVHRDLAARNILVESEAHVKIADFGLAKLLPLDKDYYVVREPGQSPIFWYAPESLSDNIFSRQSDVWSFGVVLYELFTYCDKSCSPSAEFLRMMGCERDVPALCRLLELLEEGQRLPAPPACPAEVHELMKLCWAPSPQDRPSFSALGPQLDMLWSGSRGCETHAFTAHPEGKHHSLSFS
As to the kind of experiment: Inhibition of JAK3 domain2 activation Loop (IADFGLAKLLPLDKDYYVVR) in human PBMC at 0.1 uM.

For assay [8], the target named is MAP/microtubule affinity-regulating kinase 3 (Homo sapiens) (UniProt P27448). As to the kind of experiment: Inhibition of MARK3 conserved Lys1 (EVAIKIIDK) in human PBMC at 0.1 uM.
In assay [9] the target is Ribosomal protein S6 kinase alpha-1 (Homo sapiens) (UniProt Q15418). Description: Inhibition of RSK1 conserved Lys2 (DLKPENILLDEEGHIK) in human PBMC at 0.1 uM.
Assay [10] has as its target Serine/threonine-protein kinase WNK1 (Homo sapiens) (UniProt Q9H4A3). Description: Inhibition of Wnk1 ATP binding site (GSFKTVYK) in human PBMC at 0.1 uM.
Assay [11] has as its target Serine/threonine-protein kinase Nek8 (Homo sapiens) (UniProt Q86SG6). As to the kind of experiment: Inhibition of NEK8 conserved Lys2 (DLKTQNILLDK) in human PBMC at 1 uM.

One may read the inhibition as the change of the read-out against control, counted positive when it falls.

MAP/microtubule affinity-regulating kinase 3 (Homo sapiens), sequence (P27448 whole entry, looked up): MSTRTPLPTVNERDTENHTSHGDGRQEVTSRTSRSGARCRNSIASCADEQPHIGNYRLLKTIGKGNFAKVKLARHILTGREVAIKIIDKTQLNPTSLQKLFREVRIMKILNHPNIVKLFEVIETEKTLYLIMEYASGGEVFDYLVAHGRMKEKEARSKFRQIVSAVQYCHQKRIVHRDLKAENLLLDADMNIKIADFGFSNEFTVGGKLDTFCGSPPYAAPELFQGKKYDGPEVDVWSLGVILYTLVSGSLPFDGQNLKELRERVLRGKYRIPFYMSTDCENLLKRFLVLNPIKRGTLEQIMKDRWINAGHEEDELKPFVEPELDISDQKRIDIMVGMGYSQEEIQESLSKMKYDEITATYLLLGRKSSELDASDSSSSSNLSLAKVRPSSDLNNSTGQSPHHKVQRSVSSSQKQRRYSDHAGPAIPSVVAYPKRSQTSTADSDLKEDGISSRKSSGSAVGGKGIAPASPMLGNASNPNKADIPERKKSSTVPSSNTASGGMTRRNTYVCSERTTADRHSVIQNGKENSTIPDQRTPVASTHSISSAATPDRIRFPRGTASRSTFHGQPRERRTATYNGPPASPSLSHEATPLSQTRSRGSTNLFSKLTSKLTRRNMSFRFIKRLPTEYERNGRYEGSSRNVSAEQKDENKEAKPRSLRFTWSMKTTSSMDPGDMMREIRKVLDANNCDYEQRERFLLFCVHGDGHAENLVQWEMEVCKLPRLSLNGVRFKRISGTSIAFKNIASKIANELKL
Ribosomal protein S6 kinase alpha-1 (Homo sapiens), sequence (Q15418 whole entry): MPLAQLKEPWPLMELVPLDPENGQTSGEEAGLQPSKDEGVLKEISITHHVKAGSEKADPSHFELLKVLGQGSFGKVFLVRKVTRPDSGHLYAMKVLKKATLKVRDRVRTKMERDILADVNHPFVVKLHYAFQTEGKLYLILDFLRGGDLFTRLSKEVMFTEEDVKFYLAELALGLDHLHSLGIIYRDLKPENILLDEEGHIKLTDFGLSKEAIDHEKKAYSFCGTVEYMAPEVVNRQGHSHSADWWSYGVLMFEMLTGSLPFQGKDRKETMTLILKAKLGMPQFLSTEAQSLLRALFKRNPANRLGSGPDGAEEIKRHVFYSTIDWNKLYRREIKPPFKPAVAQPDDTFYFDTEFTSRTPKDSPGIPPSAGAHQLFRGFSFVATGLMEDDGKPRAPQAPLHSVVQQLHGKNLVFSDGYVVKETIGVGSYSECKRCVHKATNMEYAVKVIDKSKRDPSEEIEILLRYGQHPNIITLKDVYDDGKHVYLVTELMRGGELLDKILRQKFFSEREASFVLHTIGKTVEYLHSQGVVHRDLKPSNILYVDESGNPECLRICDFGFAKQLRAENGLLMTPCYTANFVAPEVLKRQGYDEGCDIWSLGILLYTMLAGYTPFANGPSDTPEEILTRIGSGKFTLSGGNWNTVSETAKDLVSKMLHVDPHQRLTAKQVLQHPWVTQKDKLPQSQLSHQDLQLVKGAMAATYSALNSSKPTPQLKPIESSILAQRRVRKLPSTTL
Serine/threonine-protein kinase WNK1 (Homo sapiens), sequence (Q9H4A3 whole entry, looked up): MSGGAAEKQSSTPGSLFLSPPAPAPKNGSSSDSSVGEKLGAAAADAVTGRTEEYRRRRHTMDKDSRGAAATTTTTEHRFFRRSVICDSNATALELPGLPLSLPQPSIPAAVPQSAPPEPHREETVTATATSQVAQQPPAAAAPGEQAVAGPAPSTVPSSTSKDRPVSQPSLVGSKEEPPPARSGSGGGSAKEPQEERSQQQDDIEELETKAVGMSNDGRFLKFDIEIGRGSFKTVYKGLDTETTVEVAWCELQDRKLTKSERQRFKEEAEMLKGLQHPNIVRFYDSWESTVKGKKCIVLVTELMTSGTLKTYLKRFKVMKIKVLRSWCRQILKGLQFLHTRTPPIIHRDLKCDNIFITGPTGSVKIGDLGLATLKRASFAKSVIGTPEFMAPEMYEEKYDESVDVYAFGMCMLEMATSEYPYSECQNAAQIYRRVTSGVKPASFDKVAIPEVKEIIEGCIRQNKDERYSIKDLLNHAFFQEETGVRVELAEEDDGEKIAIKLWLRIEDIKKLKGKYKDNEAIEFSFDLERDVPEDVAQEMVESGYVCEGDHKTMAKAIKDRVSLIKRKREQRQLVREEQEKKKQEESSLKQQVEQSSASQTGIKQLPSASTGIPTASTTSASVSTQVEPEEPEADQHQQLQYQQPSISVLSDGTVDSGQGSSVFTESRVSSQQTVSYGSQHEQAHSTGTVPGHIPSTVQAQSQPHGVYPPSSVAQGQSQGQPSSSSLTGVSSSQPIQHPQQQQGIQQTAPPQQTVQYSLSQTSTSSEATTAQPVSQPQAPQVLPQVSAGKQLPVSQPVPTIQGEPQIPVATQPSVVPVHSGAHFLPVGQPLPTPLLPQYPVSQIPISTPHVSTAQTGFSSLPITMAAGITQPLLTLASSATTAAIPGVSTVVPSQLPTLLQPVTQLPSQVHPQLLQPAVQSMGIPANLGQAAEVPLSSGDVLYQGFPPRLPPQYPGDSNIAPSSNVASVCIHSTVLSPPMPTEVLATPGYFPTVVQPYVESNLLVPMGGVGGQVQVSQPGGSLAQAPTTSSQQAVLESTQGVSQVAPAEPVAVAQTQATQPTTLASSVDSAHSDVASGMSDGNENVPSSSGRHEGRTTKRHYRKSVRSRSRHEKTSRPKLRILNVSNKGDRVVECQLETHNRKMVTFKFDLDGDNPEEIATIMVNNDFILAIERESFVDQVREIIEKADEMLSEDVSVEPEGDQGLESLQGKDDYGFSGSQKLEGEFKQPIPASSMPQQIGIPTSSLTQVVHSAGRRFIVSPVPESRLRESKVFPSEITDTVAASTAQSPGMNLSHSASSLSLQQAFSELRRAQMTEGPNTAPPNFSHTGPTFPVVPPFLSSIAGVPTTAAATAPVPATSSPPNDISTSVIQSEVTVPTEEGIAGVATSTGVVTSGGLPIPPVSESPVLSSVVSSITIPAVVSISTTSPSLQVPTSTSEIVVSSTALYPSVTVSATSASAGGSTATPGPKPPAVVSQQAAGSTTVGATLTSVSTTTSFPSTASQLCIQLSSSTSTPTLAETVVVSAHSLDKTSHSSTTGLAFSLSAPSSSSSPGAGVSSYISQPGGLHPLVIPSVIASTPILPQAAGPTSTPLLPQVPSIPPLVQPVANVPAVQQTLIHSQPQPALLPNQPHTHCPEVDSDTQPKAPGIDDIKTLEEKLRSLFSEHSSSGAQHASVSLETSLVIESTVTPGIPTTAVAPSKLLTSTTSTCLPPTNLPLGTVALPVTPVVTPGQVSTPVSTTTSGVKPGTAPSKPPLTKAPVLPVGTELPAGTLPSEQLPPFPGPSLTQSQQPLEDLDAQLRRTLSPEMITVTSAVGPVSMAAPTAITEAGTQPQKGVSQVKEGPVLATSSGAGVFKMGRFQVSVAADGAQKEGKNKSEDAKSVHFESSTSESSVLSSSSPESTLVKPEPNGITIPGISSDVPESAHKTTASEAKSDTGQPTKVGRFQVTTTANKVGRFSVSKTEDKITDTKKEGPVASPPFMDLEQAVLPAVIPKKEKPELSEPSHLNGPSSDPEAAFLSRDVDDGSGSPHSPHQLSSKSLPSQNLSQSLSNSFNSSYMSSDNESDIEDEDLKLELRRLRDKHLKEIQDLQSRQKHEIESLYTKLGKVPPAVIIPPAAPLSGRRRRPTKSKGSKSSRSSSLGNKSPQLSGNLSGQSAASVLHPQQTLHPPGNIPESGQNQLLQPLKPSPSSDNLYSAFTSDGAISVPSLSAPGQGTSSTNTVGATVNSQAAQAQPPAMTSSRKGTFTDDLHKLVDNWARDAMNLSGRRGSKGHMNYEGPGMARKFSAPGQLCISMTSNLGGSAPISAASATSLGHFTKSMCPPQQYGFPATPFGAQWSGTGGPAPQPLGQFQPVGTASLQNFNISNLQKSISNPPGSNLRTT
Mitogen-activated protein kinase 9 (Homo sapiens), sequence (P45984 whole entry, looked up): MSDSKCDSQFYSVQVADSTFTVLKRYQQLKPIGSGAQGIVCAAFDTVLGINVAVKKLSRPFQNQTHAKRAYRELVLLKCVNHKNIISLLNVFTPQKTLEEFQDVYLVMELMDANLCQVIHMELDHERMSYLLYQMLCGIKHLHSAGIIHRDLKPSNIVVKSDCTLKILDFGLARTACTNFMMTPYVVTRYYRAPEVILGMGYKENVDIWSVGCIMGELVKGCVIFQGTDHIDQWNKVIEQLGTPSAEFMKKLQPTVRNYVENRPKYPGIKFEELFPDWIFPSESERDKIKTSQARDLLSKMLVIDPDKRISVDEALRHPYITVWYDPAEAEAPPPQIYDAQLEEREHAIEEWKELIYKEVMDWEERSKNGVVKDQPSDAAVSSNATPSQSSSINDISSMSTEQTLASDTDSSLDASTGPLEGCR
Ribosomal protein S6 kinase alpha-5 (Homo sapiens), sequence (O75582 whole entry, looked up, the tested form may be a part): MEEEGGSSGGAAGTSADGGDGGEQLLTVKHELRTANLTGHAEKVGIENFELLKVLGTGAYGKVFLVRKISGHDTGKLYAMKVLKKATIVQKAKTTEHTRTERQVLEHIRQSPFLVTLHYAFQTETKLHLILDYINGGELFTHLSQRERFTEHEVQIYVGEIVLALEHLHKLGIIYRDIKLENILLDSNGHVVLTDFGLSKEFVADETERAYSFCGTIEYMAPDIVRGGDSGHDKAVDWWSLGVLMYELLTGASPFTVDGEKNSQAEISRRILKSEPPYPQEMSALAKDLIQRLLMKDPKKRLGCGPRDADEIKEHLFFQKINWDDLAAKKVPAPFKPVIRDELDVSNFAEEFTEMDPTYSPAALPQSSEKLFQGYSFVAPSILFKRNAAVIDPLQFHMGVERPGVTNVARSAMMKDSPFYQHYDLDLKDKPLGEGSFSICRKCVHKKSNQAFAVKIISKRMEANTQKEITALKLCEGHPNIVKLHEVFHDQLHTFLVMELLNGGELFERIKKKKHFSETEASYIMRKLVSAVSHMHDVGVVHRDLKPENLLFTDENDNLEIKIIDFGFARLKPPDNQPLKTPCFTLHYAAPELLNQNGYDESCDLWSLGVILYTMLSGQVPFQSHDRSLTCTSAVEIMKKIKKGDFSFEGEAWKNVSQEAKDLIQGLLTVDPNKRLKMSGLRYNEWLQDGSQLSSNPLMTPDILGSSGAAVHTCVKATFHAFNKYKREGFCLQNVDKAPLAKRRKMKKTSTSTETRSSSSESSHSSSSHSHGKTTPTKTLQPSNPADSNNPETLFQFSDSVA

Turning to `CC(C)n1cc(-c2cc(-c3ccc(CN4CCOCC4)cc3)cnc2N)nn1`, the inhibition turned out to be 25.3% in the assay filed under Homo sapiens; 28.8% in [1]; 27.2% in assay [2]; 33.6% in assay [3]; 0% in assay [4]; 24.4% in assay [5]. For the same molecule, the inhibition in assay [6] was 25.1%; in [7], 15.9%; in assay [8], -6.7%; in [9], 11.8%; in assay [10], 18.3%; in [11], 17.1%.
